Results from patent US5990317A, “2-(1H-4(5)-imidazoyl) cyclopropyl compounds” (Gliatech, Inc., priority 1998, dated 1999).
Where a name gives a salt, the structure may show the parent alone.

Target: Histamine H3 receptor
Test: In Vitro Histamine H3 Receptor Binding Analysis ([3H]-N-alpha-methylhistamine displacement, rat cortical membranes)
Conditions: [3H]-N-alpha-methylhistamine 0.8-1.2 nM, pH 7.4, 40 min, 25° C, read-out: Histamine H3 Receptor Binding Affinities, H3 Receptor Ki
Description: Histamine H3 receptor affinity was determined in rat cortical membranes using the H3 selective agonist ligand, [^3 H]-N^α -methylhistamine (78.9 Ci/mole, DuPont NEN Research Products, Boston, Mass.) according to the method of West et al., (1990) Mol. Pharmacol. 38: 610-613 with modifications. Briefly, animals were sacrificed by decapitation and the cerebral cortex was rapidly removed. Rat cortices were mechanically homogenized with an Omni 1000 motor driven homogenizer in 10 volumes (wt/vol) of Krebs-Ringers Hepes buffer (pH 7.4) containing the following protease inhibitors: EDTA (10 mM), PMSF (0.1 mM), chymostatin (0.2 mg/50 mL) and leupeptin (0.2 mg/50 mL). The homogenate was centrifuged in a Sorvall at ~40,000×g for 30 min. The pellet was resuspended by mechanical homogenization in 25 mL water and lysed on ice for 30 min. The homogenate was recentrifuged and the membrane lysis was repeated. The membranes were recentrifuged and the final pellet was resuspended in 14 volumes of water to give approximately 200 μg protein/100 μl final concentration. The suspension was stored at -80° prior to use. Protein concentrations were determined by Coomassie Plus Protein Assay (Pierce, Rockford, Ill.).
Nonspecific binding (NSB) was accounted for by the inclusion of thioperamide (10 μM). Samples were incubated for 40 minutes at 25° C. The samples were filtered through glass fiber strips, pre-washed with 0.3% polyethyleneimine, using a Brandell cell harvester. The filters were rapidly washed three times with 4 ml of 25 mm Tris buffer containing 145 mM NaCl (pH 7.4, 4° C.). Filters were transferred to polyethylene mini-vials and counted in 3.5 ml of scintillation fluid (Ecolume, ICN Biomedicals, Inc.). […] Saturation and competition experiments were analyzed with the ReceptorFit saturation and competition curve fitting programs (Lundon Software, Ind., Cleveland, Ohio).

SMILES | Ki [nM]
C(=CC1CC1c1c[nH]cn1)CCC1CCCCC1 [Example 22, (1R,2R)-trans--4-(2-(4-cyclohexylbut-trans-1-enyl)cyclopropyl)imidazole] | 2.4 ± 0.2
O=C(NCC12CC3CC(CC(C3)C1)C2)[C@@H]1C[C@H]1c1c[nH]cn1 (relative stereo) [Example 8, N-[1-Adamantylmethyl]-3-(1H-imidazol-4-yl)-trans-(2R,3R)-cyclopropanamide hydrochloride and N-[1-Adamantylmethyl]-3-(1H-imidazol-4-yl)-trans-(2S,3S)-cyclopropanamide hydrochloride] | 55 ± 6
O=C(NCCC1=CCCCC1)[C@@H]1C[C@H]1c1c[nH]cn1 (relative stereo) [Example 31, N-[2-Cyclohex-1-enyl-ethyl]-3(R)-[1H-imidazol-4-yl]-2(R)-cyclopropanamide HCl salt and N-[2-Cyclohex-1-enyl-ethyl]-3(S)-[1H-imidazol-4-yl]-2(S)-cyclopropanamide HCl salt] | 294 ± 26
O=C(NCC1CCCCC1)[C@@H]1C[C@H]1c1c[nH]cn1 (relative stereo) [Example 2, (±)-trans-N-(cyclohexylmethyl)(2-imidazol-4-ylcyclopropyl)formamide] | 37 ± 4
NC(CC1CCCCC1)C(=O)NC1CC1c1c[nH]cn1 [Example 12, (1R,2R)-trans-2(S)-amino-3-cyclohexyl-N-(2-imidazol-4-ylcyclopropyl)propanamide] | 1.85 ± 0.5
O=C(CCCC1CCCCC1)[C@@H]1C[C@H]1c1c[nH]cn1 (racemic) [Example 10, (±)-trans-4-cyclohexyl-1-(2-imidazol-4-ylcyclopropyl)butan-1-one] | 97 ± 21
C(=C/[C@@H]1C[C@H]1c1c[nH]cn1)/CCC1CCCCC1 (relative stereo) [Example 16, (±)-trans-4-(2-(4-cyclohexylbut-cis-1-enyl)cyclopropyl)imidazole] | 12.2 ± 1
O=C(NCCc1ccccc1)[C@@H]1C[C@H]1c1c[nH]cn1 (relative stereo) [Example 9, (±)-trans-(2-imidazol-4-ylcyclopropyl)-N-(2-phenylethyl)formamide] | 163 ± 19
O=C(NCCc1c[nH]c2ccccc12)[C@@H]1C[C@H]1c1c[nH]cn1 (relative stereo) [Example 35, (±)-trans-(2-imidazol-4-ylcyclopropyl)-N-(2-indol-3-ylethyl)formamide] | 44 ± 73
OC(CCCC1CCCCC1)[C@@H]1C[C@H]1c1c[nH]cn1 (mixture of isomers) [Example 19, (±)-trans-4-cyclohexyl-1-(2-imidazol-4-ylcyclopropyl)butan-1-ol] | 160 ± 9
O=C(NCCCN1CCOCC1)[C@@H]1C[C@H]1c1c[nH]cn1 (relative stereo) [Example 4, (±)-trans-(2-imidazol-4-ylcyclopropyl)-N-(3-morpholin-4-ylpropyl)formamide] | 1400 ± 158
O=C(N[C@H]1C[C@@H]1c1c[nH]cn1)[C@@H]1CC2CCCCC2N1 (stereo partly drawn) [Example 14, (2R,3R)-trans-(7-azabicyclo[43.0]non-(S)-8-yl)-N-(2-imidazol-4-ylcyclopropyl)formamide] | 8.5 ± 0.7
O=C(NCC(O)CC1CCCCC1)[C@@H]1C[C@H]1c1c[nH]cn1 (relative stereo) [Example 36, (±)-trans-N-(3-cyclohexyl-2-(±)-hydroxypropyl)(2-imidazol-4-ylcyclopropyl)formamide] | 145
O=C(NCCCC1CCCCC1)C1CC1c1c[nH]cn1 (stereo not shown) [Example 30] | 42 ± 7
O=C(N[C@@H]1C[C@H]1c1c[nH]cn1)OCc1ccccc1 (relative stereo) [Example 26, (±)-trans-N-(2-imidazol-4ylcyclopropyl)(phenylmethoxy)formamide] | 5.8 ± 0.4
C(=CC1CC1c1c[nH]cn1)CCC1CCCCC1 [Example 25, (1S,2S)-trans-4-(2-(4-cyclohexylbut-trans-1-enyl)cyclopropyl)imidazole] | 56 ± 9
CN(CC1CCCCC1)C(=O)[C@@H]1C[C@H]1c1c[nH]cn1 (racemic) [Example 11, (±)-trans-N-(cyclohexylmethyl)(2-imidazol-4-ylcyclopropyl)-N-methylformamide] | 134 ± 13
O=C(NCc1ccccc1)[C@@H]1C[C@H]1c1c[nH]cn1 (relative stereo) [Example 1, N-(1-Benzyl)-3-[(1H-imidazol-4-yl)]-(2R,3R)-trans-cyclopropanamide and N-(1-Benzyl)-3-[(1H-imidazol-4-yl)]-(2S,3S)-trans-cyclopropanamide hydrochloride] | 53 ± 2
C[C@@H](NC(=O)C1CC1c1c[nH]cn1)C1CCCCC1 (mixture of isomers) [Example 6, N-[(R)-1-Cyclohexylethyl]-3-(1H-imidazol-4-yl)-trans-(2R,3R)-cyclopropanamide and N-[(R)-1-Cyclohexylethyl]-3-(1H-imidazol-4-yl)-trans-(2S,3S)-cyclopropanamide hydrochloride] | 70 ± 8.6

SMILES | Ki [nM]
O=C(NCC1CC1)[C@@H]1C[C@H]1c1c[nH]cn1 (relative stereo) [Example 32, (±)-trans-N-(cyclopropylmethyl)(2-imidazol-4-ylcyclopropyl)formamide] | 876 ± 158
O=C(NCCCCC1CCCCC1)[C@@H]1C[C@H]1c1c[nH]cn1 (relative stereo) [Example 37, (±)-trans-N-(4-cyclohexylbutyl)(2-imidazol-4-ylcyclopropyl)formamide] | 68
O=C(N[C@@H]1C[C@H]1c1c[nH]cn1)[C@@H]1CC2CCCCC2N1 (stereo partly shown) [Example 15] | 37 ± 4
O=C(NCCc1c[nH]cn1)[C@@H]1C[C@H]1c1c[nH]cn1 (relative stereo) [Example 34, (±)-trans-(2-imidazol-4-ylcyclopropyl)-N-(2-imidazol-4-ylethyl)formamide] | 227 ± 26
CC1CCCCN1CCCNC(=O)[C@@H]1C[C@H]1c1c[nH]cn1 (relative stereo) [Example 3, (±)-trans-(2-imidazol-4-ylcyclopropyl)-N-(3-((±)-2-methylpiperidyl)formamide] | 659 ± 52
NC(C=CC1CC1c1c[nH]cn1)CC1CCCCC1 [Example 21, 1(R)-[1H-imidazol-4-yl]-2(R)-cyclopropyl-5-(S)-amino-6-cyclohexyl-3-cis-hexene] | 97.7 ± 28
O=C(NCC1CCCCC1)[C@@H]1C[C@H]1c1c[nH]cn1 [Example 2b] | 176 ± 9
C(=CC1CC1c1c[nH]cn1)CCC1CCCCC1 [Example 23, (1R,2R)-trans-4-(2-(4-cyclohexylbut-cis-1-enyl)cyclopropyl)imidazole] | 6.2 ± 0.8
C[C@H](NC(=O)C1CC1c1c[nH]cn1)C1CCCCC1 (mixture of isomers) [Example 7, N-[(S)-1-Cyclohexylethyl]-3-(1H-imidazol-4-yl)-trans-(2R,3R)-cyclopropanamide and N-[(S)-1-Cyclohexylethyl]-3-(1H-imidazol-4-yl)-trans-(2S,3S)-cyclopropanamide hydrochloride] | 146 ± 13
O=C(NCCCC1CCCCC1)[C@@H]1C[C@H]1c1c[nH]cn1 (relative stereo) [Example 29, N-[3-cyclohexylpropyl]-3(R)-[1H-imidazoyl-4-yl]-2(R)-cyclopropanamide and N-[3-Cyclohexylpropyl]-3(S)-[1H-imidazoyl-4-yl]-2(R)-cyclopropanamide] | 36 ± 8
c1nc([C@@H]2C[C@H]2COCCCC2CCCCC2)c[nH]1 (racemic) [Example 18, (±)-trans-(3-cyclohexylpropoxy)(2-imidazol-4-ylcyclopropyl)methane] | 240 ± 6
NC(CC1CCCCC1)C(=O)NC1CC1c1c[nH]cn1 [Example 13, (1S,2S)-trans-2(S)-amino-3-cyclohexyl-N-(2-imidazol-4-ylcyclopropyl)propanamide] | 21.5 ± 1.8
NC(C=CC1CC1c1c[nH]cn1)CC1CCCCC1 [Example 20, (1R,2R)-trans-1-cyclohexyl-4-(2-imidazol-4-ylcyclopropyl)but-trans-3-en-2(S)-ylamine] | 0.37 ± 0.2
O=C(Nc1ccccc1)[C@@H]1C[C@H]1c1c[nH]cn1 (relative stereo) [Example 5, N-(phenyl)-3-(1H-imidazol-4-yl)-trans-(2R,3R)-cyclopropanamide and N-(phenyl)-3-(1H-imidazol-4-yl)-trans-(2S,3S)-cyclopropanamide hydrochloride] | 267 ± 26
C(=C\[C@@H]1C[C@H]1c1c[nH]cn1)/CCC1CCCCC1 (relative stereo) [Example 17, (±)-trans-4-(2-(4-cyclohexylbut-trans-1-enyl)cyclopropyl)imidazole] | 11 ± 1
O=C(NCC1CCCCC1)[C@H]1C[C@@H]1c1c[nH]cn1 [Example 2a] | 23 ± 1
O=C(NCCCc1ccccc1)[C@@H]1C[C@H]1c1c[nH]cn1 (relative stereo) [Example 33, (±)-trans-(2-imidazol-4-ylcyclopropyl)-N-(3-phenylpropyl)formamide] | 197 ± 23
C(=CC1CC1c1c[nH]cn1)CCC1CCCCC1 [Example 24, (1S,2S)-trans-4-(2-(4-cyclohexylbut-cis-1-enyl)cyclopropyl)imidazole] | 108 ± 3.9
